From patent publication US20230382920A1, “SHMT Inhibitors” (The Trustees of Princeton University, priority 2020, published 2023)
Read-outs that look alike come from different tables or passages of the source.

Assay: Pharmacokinetics study of KDG-0388 in male CD1 mice (Example 2)
Format: in vivo
Settings: for F: bioavailability vs 1 mg/kg IV; for MRT inf: read-out: MRTInf_obs
Description: A standard PK study of KDG-0388 was performed in male CD1 mice dosed with a single oral or intraperitoneal dose of KDG-0388. The parameters of the PK study are described in Table 10. Dosing solutions were freshly made prior to use, and were in the form of a suspension. […] For IV and IP, after collection, plasma samples from the same time point were pooled, and the pooled samples were analyzed by LC/MS/MS.
The desired serial concentrations of working solutions were achieved by diluting stock solution of analyte with 50% acetonitrile in water solution. 5 μL of working solutions (2, 4, 10, 20, 100, 400, 2000, 4000 ng/mL) were added to 10 μL of blank CD1 mouse plasma to achieve calibration standards of 1-2000 ng/mL (1, 2, 5, 10, 50, 200, 1000, 2000 ng/mL) in a total volume of 15 μL. Five quality control (QC) samples at 2 ng/mL, 5 ng/mL, 50 ng/mL, 800 ng/mL and 1600 ng/mL for plasma were prepared independently of those used for the calibration curves. These QC samples were prepared on the day of analysis in the same way as calibration standards.
15 μL standards, 15 μL QC samples and 15 μL unknown samples (10 μL plasma with 5 μL blank solution) were added to 200 μL of acetonitrile containing IS mixture for precipitating protein. Then, the samples were vortexed for 30 seconds. After centrifugation at 4 degrees Celsius, 4000 rpm for 15 minutes, the supernatant was diluted three times with water. 25 μL of diluted supernatant was injected into the LC/MS/MS system for quantitative analysis.
BLOQ=Below quantifiable limit of 1 ng/mL. PK parameters were estimated by non-compartmental model using WinNonlin 6.1. The PO bioavailability (F %) was calculated as following:
AUClast-PO/AUCINF-PO>80%: F=(AUCINF-PO*DoseIV)/(mean AUCINF-IV*DosePO) AUClast-PO/AUCINF-PO≤80% or AUCINF was not available: F=(AUClast-PO*DoseIV)/(mean AUClast-IV*DosePO).
The IP bioavailability (F %) was calculated as following:
AUClast-IP/AUCINF-IP>80%: F=(AUCINF-IP*DoseIV)/(mean AUCINF-IV*DoseIP) AUClast-IP/AUCINF-IP≤80% or AUCINF was not available: F=(AUClast-IP*DoseIV)/(mean AUClast-IV*DoseIP).

[1] = male, mouse, plasma, CD1 mice, 1 mg/kg IV
[2] = male, mouse, CD1 mice, plasma, 1 mg/kg IV, read-out: Concentration IV_Mean
[3] = mouse, plasma, male CD1 mice, 200 mg/kg IP
[4] = mouse, plasma, male CD1 mice, 200 mg/kg PO
[5] = mouse, male CD1 mice, plasma, 200 mg/kg IP, read-out: Concentration IP_Mean
[6] = mouse, male CD1 mice, plasma, 200 mg/kg PO, read-out: Concentration PO_Mean

SMILES: Cc1n[nH]c2c1C(c1cc(C#C[C@H]3C[C@@H](NC(=O)OC(C)(C)C)C3)cc(CO)c1)(C(C)C)C(C#N)=C(N)O2 (stereo partly drawn) [KDG-0388, tert-butyl N-[(1s,3s)-3-[2-(3-[6-amino-5-cyano-4-isopropyl-3-methyl-1H-pyrano[2,3-c]pyrazol-4-yl]-5-(hydroxymethyl)phenyl)ethynyl]cyclobutyl]carbamate]
- AUC_%Extrap_obs (CD1 mice, 1 mg/kg IV): 3.44%
- AUClast/D (CD1 mice, 1 mg/kg IV): 76.6 kg·ng·h/mL/mg
- Cl_obs (CD1 mice, 1 mg/kg IV): 210 mL/min/kg
- Vss_obs (CD1 mice, 1 mg/kg IV): 8.80 L/kg
- Concentration IV_Mean (CD1 mice, plasma, 1 mg/kg IV, 8 h): BLOQ
- AUC_%Extrap_obs (male CD1 mice, 200 mg/kg IP): 6.08%
- AUClast/D (male CD1 mice, 200 mg/kg IP): 136 kg·ng·h/mL/mg
- F (male CD1 mice, 200 mg/kg IP): 183%
- AUC_%Extrap_obs (male CD1 mice, 200 mg/kg PO): 0.218%
- AUClast/D (male CD1 mice, 200 mg/kg PO): 16.9 kg·ng·h/mL/mg
- F (male CD1 mice, 200 mg/kg PO): 21.4%
- Concentration PO_Mean (male CD1 mice, plasma, 200 mg/kg PO, 24 h): BLOQ
- clinical symptoms (male CD1 mice, single dose 200 mg/kg PO or 200 mg/kg IP, entire experiment): No abnormal clinical symptoms were observed
- AUC(0-inf) [1]: 79.3 ng·h/mL
- AUC(0-t) [1]: 76.6 ng·h/mL
- C0 [1]: 325 ng/mL
- half-life [1]: 1.11 h
- MRT inf [1]: 0.698 h
- concentration at 0.083 h (male, mouse, CD1 mice, plasma, 1 mg/kg IV, 0.083 h, read-out: Concentration IV_Mean): 186 ng/mL
- concentration at 0.25 h [2]: 60.6 ng/mL
- concentration at 0.5 h [2]: 24.9 ng/mL
- concentration at 1 h [2]: 11.8 ng/mL
- concentration at 2 h [2]: 4.86 ng/mL
- concentration at 4 h [2]: 1.71 ng/mL
- AUC(0-inf) [3]: 29000 ng·h/mL
- AUC(0-t) [3]: 27200 ng·h/mL
- Cmax [3]: 7520 ng/mL
- Tmax [3]: 0.25 h
- half-life [3]: 7.88 h
- MRT inf [3]: 6.33 h
- AUC(0-inf) [4]: 3400 ng·h/mL
- AUC(0-t) [4]: 3390 ng·h/mL
- Cmax [4]: 719 ng/mL
- Tmax [4]: 2 h
- half-life [4]: 1.69 h
- MRT inf [4]: 3.53 h
- concentration at 0.25 h [5]: 7520 ng/mL
- concentration at 0.5 h [5]: 6170 ng/mL
- concentration at 1 h [5]: 5460 ng/mL
- concentration at 2 h [5]: 3910 ng/mL
- concentration at 4 h [5]: 2230 ng/mL
- concentration at 8 h (mouse, male CD1 mice, plasma, 200 mg/kg IP, 8 h, read-out: Concentration IP_Mean): 633 ng/mL
- concentration at 16 h [5]: 247 ng/mL
- concentration at 24 h (mouse, male CD1 mice, plasma, 200 mg/kg IP, 24 h, read-out: Concentration IP_Mean): 155 ng/mL
- concentration at 0.25 h [6]: 215 ng/mL
- concentration at 0.5 h [6]: 347 ng/mL
- concentration at 1 h [6]: 475 ng/mL
- concentration at 2 h [6]: 719 ng/mL
- concentration at 4 h [6]: 417 ng/mL
- concentration at 8 h (mouse, male CD1 mice, plasma, 200 mg/kg PO, 8 h, read-out: Concentration PO_Mean): 84.3 ng/mL
- concentration at 16 h [6]: 3.04 ng/mL
